Experimental data: patent US8697876B2, “Compositions and methods of synthesis of pyridinolypiperidine 5-HT1F agonists” (Colucid Pharmaceuticals, Inc., priority 2010, dated 2014)

Assay: Solid-state properties of Form A (hygroscopicity)
Assay type: physicochemical
Conditions: crystalline anhydrate

Compound: CN1CCC(C(=O)c2cccc(NC(=O)c3c(F)cc(F)cc3F)n2)CC1.O=C(O)CCC(=O)O [Form A, 2,4,6-Trifluoro-N-(6-(1-methylpiperidine-4-carbonyl)pyridine-2-yl)benzamide Hemisuccinate]
- hygroscopicity: non-hygroscopic
